Experimental data from article PMC5469208 (Molecular microbiology, 2016).
Values after ≈ are worked out from the molar mass of the structure shown. “Also recorded” adds a separate entry of the source. Read-outs that look alike come from different tables or passages of the source.

Legend:
M. bovis wildtype (wt) = format: cell-based, Mycobacterium bovis BCG
ClpP2 = format: cell-based, M. bovis BCG
[1] = tested on: M. bovis BCG clpP1-tetoff; format: cell-based, Mycobacterium bovis BCG
S. aureus = details: ref Conlon et al., 2013; cited from earlier work
B. subtilis 168ΔclpP = test: microbe, parasite or virus in culture; format: cell-based; details: Bacillus subtilis, LB medium
M. bovis BCG Pasteur = test: microbe, parasite or virus in culture; format: cell-based, Mycobacterium bovis BCG
B. subtilis 168 = test: MIC determination by broth microdilution, B. subtilis 168 wt; format: cell-based; details: Bacillus subtilis, 168, B. subtilis 168 wt, LB medium
M. tuberculosis H37Rv = test: MIC determination by broth microdilution, M. tuberculosis; format: cell-based; details: Mycobacterium tuberculosis
B. subtilis 168-pX2-clpP = test: MIC determination, conditional strain B. subtilis 168-pX2-clpP; format: cell-based; details: Bacillus subtilis, 168PX2CLPP, LB medium
[2] = tested on: M. bovis BCG clpP1-tetoff; test: microbe, parasite or virus in culture; format: cell-based, Mycobacterium bovis BCG
M. smegmatis mc^2155 = test: MIC determination by broth microdilution, M. smegmatis; format: cell-based, Mycobacterium smegmatis; details: Mycolicibacterium smegmatis, MC^2155, 48 h
ClpC1 [3] = details: binding to the ATPase ClpC1; ref Schmitt et al., 2011; cited from earlier work
BS ClpP [4] = target: T1, BS ClpP (Bacillus subtilis, UniProt P80244); test: suc-LY-amc hydrolysis competition assay with BS ClpP; format: biochemical, B. subtilis; details: 3 μM BS ClpP, 30 μM suc-LY-amc, 0–60 μM ADEP2, 0, 500 or 2500 μM Z-LL, pH 8
MTB ClpP1P2 = MTB ClpP1P2 (Mycobacterium tuberculosis, UniProt P9WPC3+P9WPC5); test: Z-GGL-amc peptidase activity of Z-LL pre-activated ClpP1P2; format: biochemical, M. tuberculosis; details: 5 mM Z-LL, without ADEP
BS ClpP [5] = target: T1, BS ClpP; test: Z-LL stability in the presence of BS ClpP, HPLC; parameters: species or system B. subtilis; details: 1 mM Z-LL, 3 μM BS ClpP, 3 h, 37 °C, activity buffer, Fig. S3
ClpC1 [6] = details: ref Gavrish et al., 2014 (lassomycin); Gao et al., 2014 (ecumicin); cited from earlier work
[7] = M. bovis BCG wt, 25 ng ml^−1 ATc
[8] = M. bovis BCG wt, no ATc (Table 2)
[9] = Mycobacterium tuberculosis variant bovis BCG, BCG

T1 sequence (P80244 whole entry): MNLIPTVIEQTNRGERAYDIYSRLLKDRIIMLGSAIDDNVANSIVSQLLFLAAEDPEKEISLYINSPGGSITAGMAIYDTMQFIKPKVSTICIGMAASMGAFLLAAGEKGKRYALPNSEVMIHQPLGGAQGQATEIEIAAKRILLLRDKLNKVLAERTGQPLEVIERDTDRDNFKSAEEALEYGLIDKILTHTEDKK

Molecule: Cc1c2c(c(O)c3c(O)cccc13)C(=O)[C@]1(O)C(=O)C(C(N)=O)=C(O)[C@@H](N(C)C)[C@@H]1C2 [ATc, anhydrotetracycline]
- growth of M. bovis wildtype (M. bovis wildtype (wt); 2 ng ml^−1 ATc): not affected
- growth of M. bovis wildtype (M. bovis wildtype (wt); 25 ng ml^−1 ATc, MIC growth controls): did not impede growth of the wildtype strain
- ClpP2 / ClpP1P2 protein level (ClpP2): considerably reduced level
- growth of clpP1-tetoff strain [1]: slowed down the growth rate; also recorded: the cells were dying

Molecule: CO[C@H]1/C=C/O[C@@]2(C)Oc3c(C)c(O)c4c(O)c(c(/C=N/N5CCN(C)CC5)c(O)c4c3C2=O)NC(=O)/C(C)=C\C=C\[C@H](C)[C@H](O)[C@@H](C)[C@@H](O)[C@@H](C)[C@H](OC(C)=O)[C@@H]1C [Rifampicin]
- synergy with ADEP against S. aureus (S. aureus): act synergistically with ADEP against S. aureus

Molecule: CN[C@@H]1[C@@H](O[C@H]2O[C@H](CO)[C@@H](N)[C@H](O)[C@H]2O)OC2C[C@@H](N)[C@@H](O[C@H]3[C@H](O)[C@@H](O)[C@H](N)C[C@@H]3N)OC2[C@@H]1O (some centres unmarked) [apramycin]
- MIC (B. subtilis 168ΔclpP; 10% xylose): 1 µg/mL (≈ 1.85 µM)
- MIC (B. subtilis 168ΔclpP; no xylose): 2 µg/mL (≈ 3.71 µM)
- MIC (M. bovis BCG Pasteur; [7]): 1 µg/mL (≈ 1.85 µM)
- MIC (M. bovis BCG Pasteur; [8]): 1 µg/mL (≈ 1.85 µM)
- MIC (M. bovis BCG Pasteur; [9]): 1 µg/mL (≈ 1.85 µM)
- MIC (B. subtilis 168; 10% xylose): 2 µg/mL (≈ 3.71 µM)
- MIC (B. subtilis 168; no xylose): 4 µg/mL (≈ 7.41 µM)
- MIC (M. tuberculosis H37Rv): 1 µg/mL (≈ 1.85 µM)
- MIC (B. subtilis 168-pX2-clpP; 1% xylose): 1 µg/mL (≈ 1.85 µM)
- MIC (B. subtilis 168-pX2-clpP; 2% xylose): 2 µg/mL (≈ 3.71 µM)
- MIC (B. subtilis 168-pX2-clpP; 3% xylose): 2 µg/mL (≈ 3.71 µM)
- MIC (B. subtilis 168-pX2-clpP; 4% xylose): 4 µg/mL (≈ 7.41 µM)
- MIC (B. subtilis 168-pX2-clpP; 5% xylose): 2 µg/mL (≈ 3.71 µM)
- MIC (B. subtilis 168-pX2-clpP; 8% xylose): 4 µg/mL (≈ 7.41 µM)
- MIC (B. subtilis 168-pX2-clpP; 10% xylose): 4 µg/mL (≈ 7.41 µM)
- MIC (B. subtilis 168-pX2-clpP; no xylose): 2 µg/mL (≈ 3.71 µM)
- effect of ATc (clpP1P2 down-regulation) on sensitivity to the antibiotic [2]: did not occur

Molecule: NNC(=O)c1ccncc1 [isoniazid]
- MIC (M. smegmatis mc^2155): 4 µg/mL (≈ 29.2 µM)
- MIC (M. bovis BCG Pasteur; M. bovis BCG Pasteur, 7H9 medium): 0.06 µg/mL (≈ 0.438 µM)
- MIC (M. bovis BCG Pasteur; [7]): 0.06 µg/mL (≈ 0.438 µM)
- MIC (M. bovis BCG Pasteur; [8]): 0.06 µg/mL (≈ 0.438 µM)
- MIC (M. bovis BCG Pasteur; [9]): 0.06 µg/mL (≈ 0.438 µM)
- effect of ATc (clpP1P2 down-regulation) on sensitivity to the antibiotic [2]: did not occur
- MIC [2, 9]: 0.03 µg/mL (≈ 0.219 µM)

Molecule: Cyclomarin
- hydrolysis of a model protein in M. smegmatis (ClpC1 [3]): increased hydrolysis of a model protein

Molecule: benzyloxycarbonyl-leucyl-leucine [Z-LL]
- mode of inhibition of Z-LL versus ADEP2 (BS ClpP [4]): non-competitive with ADEP
- peptidase activity of ClpP1P2 activated by Z-LL alone (MTB ClpP1P2): able to degrade the fluorogenic peptide substrate Z-GGL-amc
- amount of Z-LL after incubation with BS ClpP (BS ClpP [5]): not reduced after 3 hours incubation

Molecule: ecumicin
- ATP-hydrolysis by ClpC1, uncoupling from protein degradation by ClpP1P2 (ClpC1 [6]): stimulate ATP-hydrolysis by ClpC1, while uncoupling it from protein degradation by ClpP1P2

Molecule: lassomycin
- ATP-hydrolysis by ClpC1, uncoupling from protein degradation by ClpP1P2 (ClpC1 [6]): stimulate ATP-hydrolysis by ClpC1, while uncoupling it from protein degradation by ClpP1P2
